Measured values reported in US20130121921A1, “Rodent Therapeutic Model And Methods” (The Christus Stehlin Foundation For Cancer Research, priority 2011, published 2013).

What was measured:
[1] = biological target: human serum albumin (HSA) (Homo sapiens, UniProt P02768); details: human blood, equilibrium moved towards carboxylate by affinity for HSA; cited from earlier work
[2] = test system: humanized NSG mice; assay: toxicity of CPT given by gavage to humanized and non-humanized NSG mice (weight, blood cell counts); assay type: in vivo, mouse
Procedure: Once maximum engraftment is reached as measured in Example 1 or 2, initial validation experiments are performed. A reasonable number of doubly humanized mice are obtained within approximately 5 to 6 months from the start of the humanizing process, i.e., 10-12 NSG mice with a >80% human BM and a >60% HSA in their blood. […] Camptothecin (CPT) is administered by gavage to humanized and non-humanized mice. At normal pH, CPT exists in equilibrium between two states: lactone and carboxylate. In the mouse, equilibrium is around 50% for each isoform. However, in human blood, due to an affinity for human serum albumin (HSA), the equilibrium moves towards the carboxylate form, leaving only 3%-5% total CPT in the active lactone form, see Giovanella et al., Annals New York Academy of Sciences 922: 27-35, 2000. The double humanized mouse can act akin to a human in this respect. Higher and higher doses of CPT are administered starting with a dose of 0.5 mg/kg orally by gavage given daily for 5 days followed by 2 days of rest for 3 weeks. Animals are weighed twice a week and their weight recorded. Blood is taken twice a week and blood cells counted. If no toxicity is found, the dose is raised by 50% and the procedure repeated until toxicity is obtained.

[3] = test system: human tumors; assay: human tumors xenotransplanted subcutaneously in humanized and non-humanized NSG mice, treated at MTD of CPT; assay type: in vivo, mouse; details: non-humanized vs humanized group, each at its own MTD
Procedure: Once a maximum tolerated dose (MTD) for humanized NSG mice and MTD for non-humanized ones is obtained using the procedure described in Example 3, final validation experiments are performed. Six human tumors are xenotransplanted subcutaneously on the dorsal flank in humanized and non-humanized NSG mice. Once the tumors become palpable, the animals are treated with the MTD dose of CPT of their group, i.e., the humanized mice with the humanized MTD and the non-humanized mice with their MTD. The tumors are measured with calipers twice a week and the results recorded. […] A human dose for CPT can be determined and suitability of the drug for treatment of humans can be determined. The experiments can be performed substituting one or more drugs in place of CPT. The experiments can be performed using one or more drugs in addition to CPT. The experiments can be performed by using introduction of human leukemia cancer cells or other non-solid tumor human cancer cells into the rodent instead of xenotransplantation of solid tumors. Such cancers can be evaluated based on alternative metrics such as cell count.

[4] = test system: human tumors; assay: xenograft test repeated in mice with higher percentage of human bone marrow and hepatocytes; assay type: in vivo, mouse; details: less humanized vs more humanized group
Procedure: The procedures in any one or combination of Examples 1-4 are performed with mice having a higher percentage of human bone marrow and hepatocytes. Rather than having a non-human control, the control can be instead, or in addition, mice having the percentage of human bone marrow (and/or human cord blood) used in the experimental group in the first performance of the procedures. Double humanized mice are further supplemented with human or humanized intestinal enzymes to form a triply humanized mouse (bone marrow, liver, and intestinal enzymes), which is then be used as a predictor of human response to anticancer agents. A mouse having humanized intestinal enzymes can be constructed, for example, as described in van Herwaarden et al., J. Clin. Invest., 117 (11):3583-3592, 2007. […] A human dose for CPT can be redetermined and suitability of the drug for treatment of humans can be redetermined.

[5] = in the mouse, normal pH; cited from earlier work

Sequence of human serum albumin (HSA) (P02768 25-609): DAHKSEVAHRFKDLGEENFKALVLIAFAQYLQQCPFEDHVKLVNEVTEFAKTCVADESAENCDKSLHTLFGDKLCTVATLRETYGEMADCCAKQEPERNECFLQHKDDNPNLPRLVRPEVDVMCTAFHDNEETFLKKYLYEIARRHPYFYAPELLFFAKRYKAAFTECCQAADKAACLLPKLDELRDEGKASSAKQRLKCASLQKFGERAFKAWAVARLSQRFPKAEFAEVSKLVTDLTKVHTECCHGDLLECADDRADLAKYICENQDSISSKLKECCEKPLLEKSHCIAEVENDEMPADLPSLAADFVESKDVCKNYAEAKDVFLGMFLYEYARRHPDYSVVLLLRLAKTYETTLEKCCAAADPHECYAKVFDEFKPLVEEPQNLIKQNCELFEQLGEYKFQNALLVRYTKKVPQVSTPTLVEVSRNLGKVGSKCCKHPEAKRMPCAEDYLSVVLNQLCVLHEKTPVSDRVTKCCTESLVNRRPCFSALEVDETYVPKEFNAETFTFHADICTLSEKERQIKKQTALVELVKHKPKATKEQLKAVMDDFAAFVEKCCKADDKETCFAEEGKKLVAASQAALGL

## CC[C@@]1(O)C(=O)OCc2c1cc1n(c2=O)Cc2cc3ccccc3nc2-1 [CPT, Camptothecin]
[1]
  total CPT in the active lactone form: 3%-5%
[2]; human bone marrow cells vs mouse cells
  sensitivity of human bone marrow cells present in the mouse: more sensitive to camptothecin than mouse cells
[2]; humanized NSG mice, relation to percentage of human bone marrow
  hematological toxicity of CPT: directly proportional to the percentage of human bone marrow
[2]; oral gavage from 0.5 mg/kg daily x5, 2 days rest, 3 weeks, dose raised by 50%, humanized vs non-humanized mice
  toxicity of CPT for humanized mice: Higher toxicity
[3]
  anticancer activity (relative size of the tumors): much higher anticancer activity of CPT in the non-humanized group
[4]
  anticancer activity (relative size of the tumors): higher anticancer activity of CPT in the less humanized group
[5]
  equilibrium share of each isoform (lactone and carboxylate): around 50%
